The values that follow come from patent publication US20260085315A1, “POLYNUCLEOTIDE COMPOSITIONS AND METHODS FOR TREATMENT OF CANCER” (APTAH BIO, INC., priority 2023, published 2026).

The test system of series [1] is SH-SY5Y cell line. In words: MTT cytotoxicity assay on human cancer cell panel (Example 2). Type of series: cell-based. Conditions: 0.03-30 μM tested, 0.1% FBS. The procedure: Cell lines were maintained in growth medium with 10% of Fetal Bovine Serum (FBS) until the time of the experiments. Cells were sub-cultured by trypsinization and splitting the cell suspension into fresh flasks and supplementing with fresh culture medium. To perform the assay, the cells were trypsinized, neutralized with complete medium (10% FBS), centrifuged, counted with assistance of a hemocytometer, and plated with the respective media with 10% FBS. Cell lines were plated at a density of 1×10^4 cells per well, other than the SH-SY5Y cell line which was plated at a density of 2.5×10^4. […] After 24, 48, 72 and 96 hours of incubation, the effect of ASMO1 and controls on cytotoxicity of cells was determined by MTT assay.
Briefly, plates were taken out and 20 μl of 5 mg/ml of MTT 3-(4,5-dimethythiazol-2-yl)-2,5-diphenyl tetrazolium bromide solution was added to all the wells. […] The absorbance of each well was then read at 540 nm using Synergy HT microplate reader.
As shown in FIG. 13A-D, up to 72 hours ASMO1 APT20TTMG seems to have a cytotoxic effect from the concentration of […]. At 96 hours, the profile is a little different, and the concentration of 0.3 μM seems to start some effect. […] MTT assay was performed in 4 distinct times and graphs are represented as absorbance (540 nm). […]

In series [2] the test system is SH-SY5Y cell line. In words: Apoptosis/necrosis phase distribution. Type of series: cell-based, Human. Conditions: 0.25 μM; 24 hours.
Series [3] deals with neuroblastoma cell line (SK-N-SH). Put plainly: Cell viability over time. Type of series: cell-based. The following applies: 0.5 μM; 24, 48, 96, 144 hours; indicating a cytostatic effect. The procedure:
FIG. 26 illustrates cell viability results obtained after 24, 48, 96 and 144 hours of incubation with ASMO1 (0.5 μM) in neuroblastoma cell line (SK-N-SH).

The test system of series [4] is glioblastoma cell line U87-MG. In words: Internalization of FAM-conjugated compound by flow cytometry. Type of series: cell-based, Human. The following applies: 1 μM FAM conjugate. The procedure: The values obtained were: 1 hour (47.45±4.7%), 2 hours (45.45±3.9%), 4 hours (58±4.8%) and 6 hours (63.65±3.2%). Cells were exposed to the fluorochrome-conjugated compound FAM at a concentration of 1 μM, so that the quantification of intracellular fluorescence was performed at 1, 2, 4 and 6 hours using of the flow cytometry technique, through the acquisition of 10,000 gated events. Data of 2 independent experiments performed in two technical replicates.

The subject of the next series is U87-MG cell line. In words: Mitochondrial membrane potential. Type of series: cell-based, Human. The following applies: 0.25 and 0.5 μM.
Series [5] deals with U87MG (Human Glioblastoma). In words: BrdU cell proliferation assay. Type of series: cell-based. The method, then:
In vitro effects of APT20TTMG on viability and proliferation of human cancer cell line U87MG (Human Glioblastoma) were also evaluated by MTT and BrdU assays, respectively. Cells were treated with APT20TTMG and Reference Items in technical triplicates (Experiment was done in 3 different sets) at various concentrations for 48 h, 96 h, and 144 h. APT20TTMG and Reference Items were read after every 48 h.
As shown in FIGS. 32-33, A MTT assay (FIG. 32) was also performed with another five different concentrations of APT20TTMG (0.003, 0.03, 0.3, 3, and 30 μM) and at 48, 96, and 144 hours of incubation. […] Finally, to confirm whether APT20TTMG is a cytotoxic or cytostatic molecule considering its ability to reduce cellular viability in certain concentrations, a cell proliferation assay (FIG. 33) with the U87-MG cell line was also performed in the same conditions as the MTT assay. […] Cells were plated and treated with 5 different concentrations (0.003, 0.03, 0.3, 3, and 30 μM). BrdU assay was performed after 48, 96, or 144 hours of incubation. Data are plotted as a percentage (%) of cell viability compared to the negative control group (vehicle). Results are expressed as Mean±SEM of three independent experiments performed in three technical replicates. Statistical analysis was performed using one-way ANOVA followed by Dunnett's multiple comparison test. *p<0.05, **p<0.01, ***p<0.001, ****p<0.0001.

In a further series the test system is Ki67. Put plainly: Ki67 immunohistochemistry of tumor samples. Type of series: in vivo, athymic nude mice. Conditions: treated groups vs non-treated control. The method, then:
Immunohistochemistry analysis of Ki67 in tumor samples was also performed. Quantification of the Ki67 in the sections was carried out by visual estimation (Ki67+ve) using two approaches: count of Ki-67 positive tumor cells and Ki67 total area. This process was done using ImageJ public domain software. In the case of the Ki67 total area evaluation, the ImageJ threshold function was used and each image was split into its constituent red, blue and green grayscale images. Further, one of these was selected and processed for threshold values. Values were selected so that the relevant areas (Ki67+ve cells, in this case) were highlighted and the % of area occupied by the selected threshold limits measured.
As shown in FIG. 35A-B, graphs present the individual values of protein quantification of tumors from 8 animals. (A) Ki-67 area, (B) Ki-67 positive tumor cells count.

d = 2'-deoxy (DNA); m = 2'-O-methyl

Consider “APT20TTMG: engineered polynucleotide ASMO1, 24 nt, SEQ ID NO: 3 gtccactaacctttcaggccagcg; targeting moieties 5′-GTCCA-3′ and 5′-CG-3′, U1 snRNP recruiting moiety (GTCCACTAACCTTTCAGGCCAGCG; sugars from the 5' end m5 d14 m5, all phosphorothioate, methylation of C and T or U not given here)”, for which the “concentration that starts some effect (MTT)” value in the series with SH-SY5Y cell line [1] (96 hours) was at least 0.3 µM. For the same substance, in the series with SH-SY5Y cell line [1] (up to 72 hours), the “concentration from which a cytotoxic effect is seen (MTT)” value is on record as at least 1 p M. Moreover, the necrotic cells entry with SH-SY5Y cell line [2] is given as “increase in necrotic cells”. For the same substance, the “number of viable cells” value in series [3] was “remains practically the same”. The internalization in series [4] (1 hour) was 47.45±4.7%; in series [4] (2 hours), 45.45±3.9%; in series [4] (4 hours), 58±4.8%; in series [4] (6 hours) it was 63.65±3.2%. For the same substance, the “mitochondrial membrane potential labeling” value with U87-MG cell line is given as “reducing the labeling”. Also, the “cell proliferation (BrdU)” value is recorded as “increase in cell proliferation” in series [5] (0.03 μM, first 48 hours); “significant reduction in cell proliferation” in series [5] (highest concentrations (0.3, 3, 30 μM), 144 hours); “temporary increase in cell proliferation” in series [5] (highest concentrations (0.3, 3, 30 μM), first 48 hours); “statistically significant decrease in proliferation” in series [5] (lowest concentrations (0.003 and 0.03 μM), 144 hours). In addition, in the series with Ki67, the “Ki67 (positive tumor cell count and total area)” value is “did not detect any statistical differences”.
